The values below come from US20230355501A1, “COSMETIC COMPOSITION” (AJINOMOTO CO., INC., priority 2021, published 2023).

SMILES strings stand for the structures.

The nature of this series: Melting point of PHC compositions by differential scanning calorimeter. It is filed as physicochemical. As to conditions: DSC7000X, approx. 2 mg, nitrogen atmosphere, from 25° C. at 5° C./min. Here is the method:
PHCs in a mixing ratio shown in Table 2 were mixed in a mortar, to prepare each sample.
Each sample in an amount of approximately 2 mg was heated under a nitrogen atmosphere using a differential scanning calorimeter DSC7000X (Hitachi High-Tech Science Corporation) with the temperature raised from 25° C. at a rate of 5° C./min. The temperature at the intersection of the base line and the inflection point of endothermic peak was taken as the melting point of the sample.
For orientation: Differential scanning calorimetry records heat flow against a reference as temperature is scanned.
Take `CCCCCCCCCCCCCCCCCC(=O)NC(CO)C(O)C(O)CCCCCCCCCCCCCCCC` (stereo not drawn) [Sample 13, C18:0-PHS20:0]: the Melting point is 126.2 °C. `CCCCCCCCCCCCCCCCCC(=O)NC(CO)C(O)C(O)CCCCCCCCCCCCCC` (stereo not drawn) [Sample 12, C18:0-PHS18:0] had a Melting point of 124.2 °C.

`CCCCCCCCCCCCCCCCCC(=O)NC(CO)C(O)C(O)CCCCCCCCCCCC` (stereo not drawn) [Sample 11, C18:0-PHS16:0] returned a Melting point of 122.0 °C.
